Tests used:
Assay in all cases: relative viability (nuclei count vs DMSO), 5 days (fraction); higher = more cells survive
AZ3146 + Alpelisib = compound: CN1CCC(CC1)OC2=CC(=C(C=C2)NC3=NC=C4C(=N3)N(C(=O)N4C)C5CCCC5)OC [AZ3146] + Cc1nc(NC(=O)N2CCC[C@H]2C(N)=O)sc1-c1ccnc(C(C)(C)C(F)(F)F)c1 [Alpelisib] (partner 2 µM)
Procedure, shortened: (§1)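 After 5 days of treatment, lung cancer cells in 1536-well plates were fixed and stained in a single step (final 0.05% Triton X-100, 1% formaldehyde, 1 ug/ml Hoechst) and their nuclei counted on 4× images. Treatment had been applied by pin tool the day after seeding as one drug alone or as a fixed anchor-drug dose with five library-drug doses (not always all listed) in √10 steps. Relative viability is the nuclei count of treated wells divided by that of vehicle wells, and values are medians of duplicate plates.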

AZ3146 + Lapatinib = compound: CN1CCC(CC1)OC2=CC(=C(C=C2)NC3=NC=C4C(=N3)N(C(=O)N4C)C5CCCC5)OC [AZ3146] + CS(=O)(=O)CCNCc1ccc(-c2ccc3ncnc(Nc4ccc(OCc5cccc(F)c5)c(Cl)c4)c3c2)o1 [Lapatinib] (partner 2 µM)
Procedure, shortened: as §1

GSK-J4 + Pictilisib = compound: CCOC(=O)CCNc1cc(N2CCc3ccccc3CC2)nc(-c2ccccn2)n1 [GSK-J4] + CS(=O)(=O)N1CCN(Cc2cc3nc(-c4cccc5[nH]ncc45)nc(N4CCOCC4)c3s2)CC1 [Pictilisib] (partner 1 µM)
Procedure, shortened: as §1

GSK-J4 + Lapatinib = compound: CCOC(=O)CCNc1cc(N2CCc3ccccc3CC2)nc(-c2ccccn2)n1 [GSK-J4] + CS(=O)(=O)CCNCc1ccc(-c2ccc3ncnc(Nc4ccc(OCc5cccc(F)c5)c(Cl)c4)c3c2)o1 [Lapatinib] (partner 2 µM)
Procedure, shortened: as §1

| Cell Line | relative viability (AZ3146 + Alpelisib; first compound 0.08 µM) | relative viability (AZ3146 + Alpelisib; first compound 2.53 µM) | relative viability (AZ3146 + Alpelisib; first compound 8 µM) | relative viability (AZ3146 + Lapatinib; first compound 0.08 µM) | relative viability (AZ3146 + Lapatinib; first compound 0.253 µM) | relative viability (AZ3146 + Lapatinib; first compound 0.8 µM) | relative viability (AZ3146 + Lapatinib; first compound 2.53 µM) | relative viability (AZ3146 + Lapatinib; first compound 8 µM) | relative viability (GSK-J4 + Pictilisib; first compound 0.5 µM) | relative viability (GSK-J4 + Pictilisib; first compound 1.581 µM) | relative viability (GSK-J4 + Pictilisib; first compound 5 µM) | relative viability (GSK-J4 + Pictilisib; first compound 15.81 µM) | relative viability (GSK-J4 + Pictilisib; first compound 50 µM) | relative viability (GSK-J4 + Lapatinib; first compound 0.5 µM) | relative viability (GSK-J4 + Lapatinib; first compound 1.581 µM) | relative viability (GSK-J4 + Lapatinib; first compound 5 µM) | relative viability (GSK-J4 + Lapatinib; first compound 15.81 µM) | relative viability (GSK-J4 + Lapatinib; first compound 50 µM) | relative viability (AZ3146 + Alpelisib; first compound 0.253 µM) | relative viability (AZ3146 + Alpelisib; first compound 0.8 µM) |
| --- | --- | --- | --- | --- | --- | --- | --- | --- | --- | --- | --- | --- | --- | --- | --- | --- | --- | --- | --- | --- |
| LK-2 | 0.907 | 1.16 | 1.66 | 0.754 | 0.961 | 0.914 | 1.01 | 0.841 | 0.573 | 0.531 | 0.736 | 0.456 | 0.443 | 1.04 | 0.905 | 1.12 | 0.646 | 0.885 |  |  |
| NCI-H1650 |  |  |  | 0.649 | 1.12 | 0.562 | 0.97 | 0.581 | 0.644 | 0.258 | 0.622 | 0.533 | 0.291 | 0.751 | 0.174 | 0.731 | 0.634 | 0.327 |  |  |
| Calu-6 | 1.01 | 1.03 | 0.787 | 1.07 | 1.16 | 1.01 | 1 | 0.397 | 0.825 | 0.874 | 0.895 | 0.88 | 0.807 | 1 | 1.11 | 1.05 | 1.03 | 1.04 | 1.01 | 1.04 |
| ABC-1 | 0.968 | 1 | 1.09 | 1.24 | 1.15 | 1.33 | 1.31 | 1.11 | 0.686 | 0.591 | 0.671 | 0.648 | 0.436 | 1.03 | 1.17 | 1.21 | 0.935 | 1.05 | 0.981 | 1.23 |
| PC-3 [JPC-3] | 0.914 | 1.08 | 1.07 | 0.368 | 0.459 | 0.419 | 0.47 | 0.444 | 0.644 | 0.647 | 0.757 | 0.742 | 0.671 | 0.47 | 0.385 | 0.578 | 0.43 | 0.427 | 1.01 | 1.02 |
| A549 | 0.716 | 0.732 | 0.308 | 0.977 | 0.948 | 0.924 | 0.872 | 0.109 | 0.43 |  | 0.573 | 0.488 | 0.332 | 0.952 | 1.03 |  | 1.1 | 0.902 | 0.794 | 0.718 |
| A-427 | 1.04 | 0.93 | 1.02 | 0.988 | 1.03 | 0.957 | 0.969 | 1.01 | 0.703 |  | 0.688 | 0.613 | 0.675 | 1.05 |  | 0.913 | 0.976 | 0.847 | 1.06 | 1.01 |
| NCI-H1975 | 0.658 | 0.616 | 0.301 | 0.922 | 0.95 | 0.928 | 0.933 | 0.783 | 0.279 | 0.31 |  | 0.344 | 0.402 | 0.873 | 0.971 |  | 0.929 | 1.19 | 0.627 | 0.671 |
| LU99A | 0.494 | 0.606 | 0.438 | 0.864 | 1.15 | 1.06 | 0.954 | 0.995 | 0.277 | 0.276 | 0.292 | 0.346 | 0.219 | 0.992 | 0.79 | 0.842 | 0.921 | 0.607 | 0.564 | 0.515 |
| NCI-H1755 | 0.919 | 0.953 | 0.917 | 1.03 | 1.05 | 0.973 | 1.05 | 1.05 | 0.453 | 0.38 | 0.378 | 0.387 | 0.331 | 0.96 | 0.905 | 0.673 | 0.923 | 0.917 | 0.989 | 0.848 |
| LOU-NH91 | 0.662 | 0.711 | 0.672 | 0.969 | 0.739 | 0.692 | 0.768 | 0.777 | 0.596 | 0.508 | 0.542 | 0.532 | 0.518 | 0.688 | 0.754 | 0.626 | 0.625 | 0.64 | 0.663 | 0.681 |
| SW 1573 | 0.843 | 0.894 | 0.757 | 1.19 | 1.17 | 1.07 | 1.04 | 1.05 | 0.526 | 0.562 | 0.549 | 0.544 | 0.294 | 1.05 | 1.05 | 0.728 | 0.865 | 1.02 | 0.762 | 0.762 |
| CAL-12T | 1.21 | 1.31 | 0.765 | 0.701 |  | 0.588 | 0.771 | 0.56 | 0.622 | 0.425 | 0.626 | 0.418 | 0.454 | 0.586 | 0.489 | 0.778 | 0.55 | 0.391 | 1.31 | 1.36 |
| NCI-H1734 | 0.731 | 0.649 | 0.696 | 1.05 | 1.17 | 1.07 | 1.1 | 0.942 | 0.464 | 0.508 | 0.401 | 0.426 | 0.341 | 0.977 | 0.802 | 0.74 | 0.893 | 0.725 | 0.62 | 0.731 |
| LCLC-97TM1 |  | 0.3 | 0.247 |  |  | 1.2 | 0.861 | 0.289 |  |  | 0.399 | 0.249 | 0.15 |  |  | 1.33 | 0.722 | 0.885 |  | 0.245 |
| BEN |  | 1.07 | 0.895 |  | 0.683 | 0.805 | 0.659 | 0.681 | 0.666 | 0.471 |  | 0.539 | 0.33 | 0.657 | 0.622 |  | 0.764 | 0.635 | 0.967 | 1.06 |
| ChaGo-K-1 |  |  |  |  |  |  |  |  | 0.864 |  | 0.655 | 0.82 | 0.596 |  |  |  |  |  |  |  |
| LCLC-103H | 0.985 | 1.03 | 0.99 |  |  |  |  |  | 0.704 | 0.6 | 0.542 | 0.691 | 0.627 |  |  |  |  |  | 0.886 | 0.859 |
| NCI-H441 | 0.58 | 0.787 | 0.647 |  |  |  |  |  | 0.427 | 0.458 | 0.571 | 0.506 | 0.403 |  |  |  |  |  | 0.719 | 0.675 |

— the supplement of paper PMC10307832
